Here are results for eight compounds from patent US8552013B2, “Heterocyclic compounds based on N6-substituted adenine, methods of their preparation, their use for preparation of drugs, cosmetic preparations and growth regulators, pharmaceutical preparations, cosmetic preparations and growth regulators containing these compounds” (USTAV Experimentalni Botaniky Akademie Ved Ceske Republiky, priority 2001, dated 2013).

Where “and” joins values, the source holds several entries; their conditions need not be identical. Equal values may be shown once. Read-outs that look alike come from different tables or passages of the source.

The test system of assay [1] is T-lymphoblastic leukemia cell line CEM. In words: Calcein AM cytotoxicity, CEM. The assay is classed as cell-based, human. The source says:
(§1) One of the parameters used, as the basis for cytotoxicity assays, is the metabolic activity of viable cells. For example, a microtiter assay, which uses the Calcein AM, is now widely used to quantitate cell proliferation and cytotoxicity. For instance, this assay is used in drug screening programs and in chemosensitivity testing. Because only metabolically active cells cleave Calcein AM, these assays detect viable cells exclusively. The quantity of reduced Calcein AM corresponds to the number of vital cells in the culture.
(§2) The cells were maintained in Nunc/Corning 80 cm^2 plastic tissue culture flasks and cultured in cell culture medium (DMEM with 5 g/l glucose, 2 mM glutamine, 100 U/ml penicillin, 100 μg/ml streptomycin, 10% fetal calf serum and sodium bicarbonate).
(§3) The cell suspensions that were prepared and diluted according to the particular cell type and the expected target cell density (2.500-30.000 cells per well based on cell growth characteristics) were added by pipette (80 μl) into 96/well microtiter plates. Inoculates were allowed a pre-incubation period of 24 hours at 37° C. and 5% CO2 for stabilisation. Four-fold dilutions of the intended test concentration were added at time zero in 20 μl aliquots to the microtiter plate wells. Usually, test compound was evaluated at six 4-fold dilutions. […] All drug concentrations were examined in duplicates. Incubations of cells with the test compounds lasted for 72 hours at 37° C., in 5% CO2 atmosphere and 100% humidity. At the end of incubation period, the cells were assayed by using the Calcein AM. Ten microliters of the stock solution were pipetted into each well and incubated further for 1 hours. Fluorescence (FD) was measured with the Labsystem FIA Reader Fluoroscan Ascent (UK).

The next assay concerns K-562. Briefly: Calcein AM cytotoxicity, K-562. The assay is classed as cell-based. The note with it: read-out: IC 50, K-562.
Description: as §1, §2, §3

In assay [2] the test system is breast carcinoma cell line MCF-7. In words: Calcein AM cytotoxicity, MCF7. The assay is classed as cell-based, human. The note with it: read-out: IC 50, MCF7.
Description: as §1, §2, §3

The next assay relates to HOS. In words: Calcein AM cytotoxicity, HOS. Type of assay: cell-based.
Description: as §1
(§4) Human T-lymphoblastic leukemia cell line CEM; promyelocytic HL-60 and monocytic U937 leukemias; breast carcinoma cell lines MCF-7, BT549, MDA-MB-231; glioblastoma U87MG cells; cervical carcinoma cells HELA; sarcoma cells U2OS and Saos2; hepatocellular carcinoma HepG2; mouse fibroblasts NIH3T3; mouse immortalized bone marrow macrophages B2.4 and B10A.4; P388D1 and L1210 leukemia; B16 and B16F10 melanomas were used for routine screening of compounds. The cells were maintained in Nunc/Corning 80 cm^2 plastic tissue culture flasks and cultured in cell culture medium (DMEM with 5 g/l glucose, 2 mM glutamine, 100 U/ml penicillin, 100 μg/ml streptomycin, 10% fetal calf serum and sodium bicarbonate).
(§5) The cell suspensions that were prepared and diluted according to the particular cell type and the expected target cell density (2.500-30.000 cells per well based on cell growth characteristics) were added by pipette (80 μl) into 96/well microtiter plates. Inoculates were allowed a pre-incubation period of 24 hours at 37° C. and 5% CO2 for stabilisation. Four-fold dilutions of the intended test concentration were added at time zero in 20 μl aliquots to the microtiter plate wells. Usually, test compound was evaluated at six 4-fold dilutions. In routine testing, the highest well concentration was […], but it can be the matter of change dependent on the agent. All drug concentrations were examined in duplicates. Incubations of cells with the test compounds lasted for 72 hours at 37° C., in 5% CO2 atmosphere and 100% humidity. At the end of incubation period, the cells were assayed by using the Calcein AM. Ten microliters of the stock solution were pipetted into each well and incubated further for 1 hours. Fluorescence (FD) was measured with the Labsystem FIA Reader Fluoroscan Ascent (UK). The tumour cell survival (GI50) was calculated using the following equitation: TCS═(FDdrug exposed well/mean FDcontrol wells)×100%. The GI50 value, the drug concentration lethal to 50% of the tumour cells, was calculated from the obtained dose response curves (FIG. 1).

Assay [3] concerns Amaranthus caudatus cotyledon/hypocotyl explants. Briefly: Amaranthus bioassay, betacyanin content. The assay is classed as in vivo. To be noted: betacyanin content at the concentration with highest activity. Here is the method:
Standard Amaranthus bioassay was performed with several modifications. The seeds of Amaranthus caudatus var. atropurpurea were surface-sterilised in 10% N-chlorobenzenesulfonamide (w/v) for 10 min and washed 5 times in deionized water. They were placed in 14 cm Petri dishes containing paper tissues saturated with deionized water. After 72 h of cultivation at 25° C. in darkness, the roots of the seedlings were cut off. The explants, consisting of two cotyledons and hypocotyls, were placed in 5 cm Petri dishes on two layers of filter paper soaked in 1 ml of incubation medium containing 10 μmol NA2HPO4-KH2PO4, pH 6.8, 5 μmol tyrosine and the cytokinin to be tested. There were 20 explants per dish. The procedure was carried out under a green safe light in a darkroom. After a 48 h of incubation at 25° C. in darkness, betacyanin was extracted by freezing the explants in 4 ml […] acetic acid. The concentration of betacyanin was determined by comparing the absorbance at 537 nm and 620 nm as follows: ΔA=[…] nm-A620 nm. From the obtained data, the concentration with highest activity was selected for each compound tested. Relative activity of the compound at this concentration was calculated (Tab. 6). […] The values shown in table 8 are means of five replicates and the entire test was repeated twice. The cytokinins to be tested were dissolved in dimethylsulfoxide (DMSO) and the solution brought up to 10^-3M with distilled water. This stock was further diluted in the respective media used for the biotest to concentrations ranging from 10^-8M to 10^-4M.

Assay [4] deals with Triticum aestivum cv. Hereward leaf tips. Briefly: Retention of chlorophyll in excised wheat leaf tips. Type of assay: in vivo. The note with it: chlorophyll retention at the concentration with highest activity. Here is the method:
Seeds of winter wheat, Triticum aestivum cv. Hereward, were washed under running water for 24 hours and then sown on vermiculite soaked with Knop's solution. They were placed in the grown chamber at 25° C. with a 16/8 h light period at 50 μmol.m^−2.s^−1. After 7 days, the first leaf was fully developed and the second leaf had started to grow. A tip section of the first leaf, approximately 35 mm long, was removed from 5 seedlings and trimmed slightly to a combined weight of 100 mg. The basal ends of the five leaf tips were placed in the wells of a microtiter polystyrene plate containing 150 μl of a cytokinin solution each. The entire plate was inserted into a plastic box lined with paper tissues soaked in distilled water to prevent leaf sections from drying out. After a 96 h incubation in the dark at 25° C., the leaves were removed and chlorophyll extracted by heating at 80° C. for 10 min in 5 ml of 80% ethanol (v/v). The sample volume was then restored to 5 ml by the addition of 80% ethanol (v/v). The absorbency of the extract was recorded at 665 nm. In addition, chlorophyll extracts from fresh leaves and leaf tips incubated in deionised water were measured. From the obtained data, the concentration with highest activity was selected for each compound tested. Relative activity of the compound at this concentration was calculated (Tab. 6). The activity obtained for 10^−4 M 6-benzylaminopurine (BAP) was postulated as 100%. The values shown are means of five replicates and the whole experiment was repeated twice. The cytokinins to be tested were dissolved in dimethylsulfoxide (DMSO) and the solution brought up to 10^−3M with distilled water. This stock was further diluted in distilled water to concentrations ranging from 10^−8M to 10^−4M.

Assay [5] deals with tobacco callus Nicotiana tabacum L. cv. Wisconsin 38. In words: Cytokinin-dependent tobacco callus growth. To be noted: fresh callus weight at the concentration with highest activity. The assay is classed as cell-based. Here is the method: Cytokinin-dependent tobacco callus Nicotiana tabacum L. cv. Wisconsin 38 was maintained at 25° C. in darkness on modified Murashige-Skoog medium, containing per 1 liter: 4 μmol nicotinic acid, 2.4 μmol pyridoxine hydrochloride, 1.2 μmol thiamine, 26.6 μmol glycine, 1.37 μmol glutamine, 1.8 μmol myo-inositol, 30 g of sucrose, 8 g of agar, 5.37 μmol α-naphtylacetic acid (NAA) and 0.5 μmol benzylaminopurine (BAP). Subcultivation was carried out every three weeks. Fourteen days before the bioassay, the callus tissue was transferred to the media without 6-benzylaminopurine (BAP). Biological activity was determined from the increase in fresh callus weight after four weeks of cultivation. Five replicates were prepared for each cytokinin concentration and the entire test was repeated twice. From the obtained data, the concentration with highest activity was selected for each compound tested. Relative activity of the compound at this concentration was calculated (Tab. 6). The activity obtained for 10^−4 M 6-benzylaminopurine (BAP) was postulated as 100%. The cytokinins to be tested were dissolved in dimethylsulfoxide (DMSO) and the solution brought up to 10^−3M with distilled water. This stock was further diluted in the respective media used for the biotest to concentrations ranging from 10^−8M to 10^−4M.

Assay [6] concerns promyelocytic HL-60 leukemia. Briefly: Calcein AM cytotoxicity, HL60. The assay is classed as cell-based, human. The note with it: read-out: IC 50, HL60.
Description: as §1, §2, §3

The next assay has as its system B16-F0 melanoma. In words: Calcein AM cytotoxicity, B16-F0. The assay is classed as cell-based. To be noted: Mus musculus, B16F0, 72 h, read-out: IC 50, B16-F0.
Description: as §1, §4, §5

Assay [7] deals with Rosa hybrida (pot rose cultivar) explants. In words: In vitro and post vitro shoot multiplication and rooting of rose. Type of assay: in vivo. The procedure:
The aim of this experiment was to test whether the new compounds are of practical use in tissue culture practice. The multiplication rate was investigated and the post vitro effects on rooting were examined. Rosa hybrida (pot rose cultivar) was cultured in 350 ml vessels with a screw on polycarbonate lid. Each culture vessel contained 100 ml autoclaved medium (120° C., 20 min). The cultures were maintained at 23±2° C. under a 16 h photoperiod at 40 μM m^−2 s^−1 PAR. The basal medium (BMR) contained Murashige and Skoog (1962) macroelements, microelements and vitamins, 95 μM NaFeEDTA, 555 μM myo-inositol, 111 mM sucrose, 1.332 mM glycine, 684 μM L-glutamine and 7 g/l agar. This medium was supplemented with 10 μM BA, mT, oMeOBAP or mMeOBAP (compound no. 14 and 15, respectively). The control medium didn't contain any cytokinin. After a culture period of 8 weeks, the number of induced shoots per explant was determined, as well as root number/explant and total root length/explant. The roots were removed and the explants (shoot clusters) were planted in unfertilised peat. After four weeks of acclimatising in a fog unit, root number and root length was determined.

Where [8] appears, read: Ex vitro, four weeks of acclimatising.

For the compound `c1coc(CNc2ncnc3[nH]cnc23)c1` [Kinetin, reference compound], the IC50 in assay [1] (Homo sapiens, 72 hours) is 155 µM; in the assay with K-562 (Homo sapiens, K562, 72 h), > 167 µM; with K-562 (Homo sapiens, K562, 72 hours), 164 µM; in assay [2] (Homo sapiens, MCF7, 72 h), > 167 µM; in the assay on HOS (Homo sapiens, HOS, 72 h), > 167 µM.
Consider `Clc1cccc(CNc2ncnc3nc[nH]c23)c1` [6-(3-chlorobenzylamino)purine], for which the “activity (%) [10^−5 mol · l^−1 BAP = 100%]” value in assay [3] was 96 (±5) %. The IC50 in the assay with K-562 (Homo sapiens, K562, 72 h) was > 167 µM; with HOS (Homo sapiens, HOS, 72 h), > 167 µM. The “Activity (%) [10^−4 mol · l^−1 BAP = 100%]” value in assay [4] is 82 (±2) %; in [5], 94 (±6) %.
On to `Clc1ccc(CNc2ncnc3nc[nH]c23)cc1` [6-(4-chlorobenzylamino)purine], for which the “activity (%) [10^−5 mol · l^−1 BAP = 100%]” value in [3] is 35 (±7) %. For the same compound, the IC50 in [1] (Homo sapiens, 72 h) is > 167 µM; in assay [6] (Homo sapiens, HL-60, 72 h) it was > 167 µM; in the assay with K-562 (Homo sapiens, K562, 72 h) it was > 167 µM; in [2] (Homo sapiens, MCF7, 72 h), > 167 µM; in the assay on HOS (Homo sapiens, HOS, 72 h), > 167 µM. For the same compound, the “Activity (%) [10^−4 mol · l^−1 BAP = 100%]” value in assay [4] was 64.5 (±13.5) %; in [5], 64 (±8) %.
For the compound `Clc1ccccc1CNc1ncnc2nc[nH]c12` [6-(2-chlorobenzylamino)purine], in the assay on B16-F0 melanoma, the IC50 was 16.9 µM. Moreover, in assay [3], the “activity (%) [10^−5 mol · l^−1 BAP = 100%]” value is on record as 109 (±8) %. Besides, the figures for the “Activity (%) [10^−4 mol · l^−1 BAP = 100%]” value in assay [4] and in [5] were 116.5 (±6.5) % and 93 (±4) %, respectively.
With `Fc1ccc(CNc2ncnc3nc[nH]c23)cc1` [6-(4-fluorobenzylamino)purine], in [3], the “activity (%) [10^−5 mol · l^−1 BAP = 100%]” value is 44 (±4) %. Also, the “Activity (%) [10^−4 mol · l^−1 BAP = 100%]” value was 95.5 (±3.5) % in assay [4] and 122 (±12) % in assay [5]. Besides, the IC50 in the assay with HOS (Homo sapiens, HOS, 72 h) is > 167 µM.
For the compound `CC(C)=CCNc1ncnc2nc[nH]c12` [IP, isopentenyladenine, reference compound], the IC50 in assay [1] (72 hours) was 92.2 µM; in assay [6] (72 hours) it was > 167 µM; in the assay with K-562 (72 hours) it was 147 µM and 162 µM; in [2] (72 hours), > 167 µM; with HOS (72 hours), > 167 µM.
Consider `COc1ccccc1CNc1ncnc2nc[nH]c12` [6-(2-methoxybenzylamino)purine], for which, in assay [7] (setting [8]), the “Root number per plant” value is recorded as 2.5 and the “Total root length per plant” value is listed as 8.5 cm. Moreover, in assay [7] (In vitro, 10 μM, 8 weeks), the “Flower number per explant” value turned out to be 0.29, the “Number of new shoots per explant” value worked out at 1.0, the “Root number per explant” value is recorded as 0.0 and the “Total root length per explant” value came out at 0.0 cm. Also, the “activity (%) [10^−5 mol · l^−1 BAP = 100%]” value in [3] is listed as 77 (±5) %. Besides, the “Activity (%) [10^−4 mol · l^−1 BAP = 100%]” value in assay [4] is listed as 269 (±12) %. For the same compound, the “Activity (%) [10^−4 mol · l^−1 BAP = 100%]” value in assay [5] is 79 (±5) %. The IC50 with HOS (Homo sapiens, HOS, 72 h) is > 167 µM.
Take `C/C(=C/CNc1ncnc2nc[nH]c12)CO` [cis Z, reference compound]: the IC50 (in [1] (72 hours); in assay [6] (72 hours); in assay [2] (72 hours); in the assay with HOS (72 hours)) was > 167 µM each time.
